Reference: patent US20040161861A1, “Glycoconjugate sensors” (priority 2002, published 2004)

Columns and labels:
Conditions in all cases: colorimetric ELISA, OD at 405 nm, FIG. 5
[1] = tested on: B. thuringiensis spores; assay type: binding, Bacillus thuringiensis
[2] = tested on: B. cereus spores; assay type: binding, Bacillus cereus
[3] = tested on: B. subtilis spores; assay type: binding, Bacillus subtilis
[4] = tested on: B. pumilus spores; assay type: binding

Substance: Fuc α1-3 GlcNAc β-PAA-flu
- binding match between spores and immobilized glycoconjugate [1]: bound

Substance: Fuc α 1-4 GlcNAc β-PAA-flu
- binding match between spores and immobilized glycoconjugate [1]: bound

Substance: Gal α 1-3 GalNAc α-PAA-flu
- binding match between spores and immobilized glycoconjugate [2]: bound

Substance: Gal β1-3 Gal β-PAA-flu
- binding match between spores and immobilized glycoconjugate [3]: bound

Substance: Gal β1-3 GalNAc β-PAA-flu
- binding match between spores and immobilized glycoconjugate [4]: bound

Substance: Gal β1-3GalNAc α-PAA-flu
- binding match between spores and immobilized glycoconjugate [4]: bound

Substance: Gal β 1-4 Glc β-PAA-flu
- binding match between spores and immobilized glycoconjugate [2]: bound

Substance: GlcNAc β 1-4 GlcNAc β-PAA-flu
- binding match between spores and immobilized glycoconjugate [3]: bound
